Reference: patent US20250296953A1, “3,4-THIAZOLO-STEROIDS AND METHODS OF MAKING AND USING THE SAME” (Arkansas State University - Jonesboro, priority 2018, published 2025)
Read-outs that look alike come from different tables or passages of the source.

Tests used:
[1] = system: NCI-H522 (NSCLC); assay: NCI 60 one dose screen; format: cell-based, human; conditions: Non-small Cell Lung Cancer
[2] = system: HCT-15 (Colon Cancer); assay: NCI 60 one dose screen; format: cell-based, human
[3] = system: SF-295; assay: NCI 60 one dose screen; format: cell-based, human; conditions: one dose; CNS Cancer; SF-295
[4] = system: 60 different human tumor cell lines; conditions: five dose
[5] = system: glioblastoma (SF-295); assay: NCI 60 five dose screen
[6] = system: gliosarcoma (SF-539); assay: NCI 60 five dose screen
[7] = system: RPMI-8226; assay: NCI 60 five dose screen

C[C@]12CC[C@H]3[C@@H](CC=C4c5sc(-c6ccc(O)cc6)nc5CC[C@@]43C)[C@@H]1CC[C@@H]2O [III.5, (1S,2R,13R,14S,17S,18S)-7-(4-hydroxyphenyl)-2,18-dimethyl-8-thia-6-azapentacyclo[11.7.0.02,10.05,9.014,18]icosa-5(9),6,10-trien-17-ol]
Growth Percent [1]: 41.21%
Growth Percent [2]: 29.48%
Growth Percent [3]: −36.24%
TGI ([4]; 786-0 (Renal Cancer)): 2.39E−6
TGI ([4]; A498 (Renal Cancer)): 2.13E−5
TGI ([4]; A549/ATCC (Non-small Cell Lung Cancer)): >1.00E−4
TGI ([4]; ACHN (Renal Cancer)): >1.00E−4
TGI ([4]; BT-549 (Breast Cancer)): 1.94E−5
TGI ([4]; CAKI-1 (Renal Cancer)): >1.00E−4
TGI ([4]; CCRF-CEM (Leukemia)): 4.72E−5
TGI ([4]; COLO 205 (Colon Cancer)): >1.00E−4
TGI ([4]; DU-145 (Prostate Cancer)): >1.00E−4
TGI ([4]; EKVX (Non-small Cell Lung Cancer)): >1.00E−4
TGI ([4]; HCC-2998 (Colon Cancer)): >1.00E−4
TGI ([4]; HCT-15 (Colon Cancer)): 2.07E−5
TGI ([4]; HCT-116 (Colon Cancer)): 2.74E−5
TGI ([4]; HL-60(TB) (Leukemia)): >1.00E−4
TGI ([4]; HOP-62 (Non-small Cell Lung Cancer)): 5.05E−5
TGI ([4]; HS 578T (Breast Cancer)): 6.01E−5
TGI ([4]; HT29 (Colon Cancer)): 2.04E−5
TGI ([4]; IGROV1 (Ovarian Cancer)): >1.00E−4
TGI ([4]; K-562 (Leukemia)): >1.00E−4
TGI ([4]; KM12 (Colon Cancer)): >1.00E−4
TGI ([4]; LOX IMVI (Melanoma)): 1.46E−5
TGI ([4]; M14 (Melanoma)): 2.93E−5
TGI ([4]; MALME-3M (Melanoma)): >1.00E−4
TGI ([4]; MCF7 (Breast Cancer)): 2.15E−5
TGI ([4]; MDA-MB-231/ATCC (Breast Cancer)): 3.29E−5
TGI ([4]; MDA-MB-435 (Melanoma)): >1.00E−4
TGI ([4]; MDA-MB-468 (Breast Cancer)): 4.16E−5
TGI ([4]; MOLT-4 (Leukemia)): >1.00E−4
TGI ([4]; NCI-H23 (Non-small Cell Lung Cancer)): >1.00E−4
TGI ([4]; NCI-H226 (Non-small Cell Lung Cancer)): >1.00E−4
TGI ([4]; NCI-H322M (Non-small Cell Lung Cancer)): >1.00E−4
TGI ([4]; NCI-H460 (Non-small Cell Lung Cancer)): >1.00E−4
TGI ([4]; NCI-H522 (Non-small Cell Lung Cancer)): >1.00E−4
TGI ([4]; NCI/ADR-RES (Ovarian Cancer)): >1.00E−4
TGI ([4]; OVCAR-3 (Ovarian Cancer)): 8.37E−5
TGI ([4]; OVCAR-4 (Ovarian Cancer)): >1.00E−4
TGI ([4]; OVCAR-5 (Ovarian Cancer)): >1.00E−4
TGI ([4]; OVCAR-8 (Ovarian Cancer)): >1.00E−4
TGI ([4]; RXF 393 (Renal Cancer)): 1.31E−6
TGI ([4]; SF-268 (CNS Cancer)): >1.00E−4
TGI ([4]; SK-MEL-2 (Melanoma)): 6.94E−5
TGI ([4]; SK-MEL-5 (Melanoma)): 1.31E−5
TGI ([4]; SK-MEL-28 (Melanoma)): 6.60E−5
TGI ([4]; SK-OV-3 (Ovarian Cancer)): >1.00E−4
TGI ([4]; SN12C (Renal Cancer)): >1.00E−4
TGI ([4]; SNB-19 (CNS Cancer)): >1.00E−4
TGI ([4]; SNB-75 (CNS Cancer)): 2.57E−5
TGI ([4]; SW-620 (Colon Cancer)): >1.00E−4
TGI ([4]; T-47D (Breast Cancer)): >1.00E−4
TGI ([4]; TK-10 (Renal Cancer)): >1.00E−4
TGI ([4]; U251 (CNS Cancer)): 6.73E−5
TGI ([4]; UACC-62 (Melanoma)): 7.64E−6
TGI ([4]; UACC-257 (Melanoma)): >1.00E−4
TGI ([4]; UO-31 (Renal Cancer)): 2.04E−5
GI50 ([5]; Homo sapiens, SF-295): 0.413 µM
CC50 ([5]; Homo sapiens, SF-295, read-out: LC50): 8.2 µM
TGI ([5]; SF-295 (CNS Cancer), five dose): 2.03E−6
GI50 ([6]; Homo sapiens, SF-539): 0.454 µM
CC50 ([6]; Homo sapiens, SF-539, read-out: LC50): 91.7 µM
TGI ([6]; SF-539 (CNS Cancer), five dose): 3.23E−6
CC50 ([7]; Homo sapiens, RPMI-8226, read-out: LC50): > 100 µM
TGI ([7]; RPMI-8226 (Leukemia), five dose): 2.50E−6
